Reference: US8247211B2, “Glycopeptide antibiotics” (American Cyanamid Company, priority 2001, dated 2012)

Assays:
Assay in all cases: In vitro antibacterial evaluation: minimum inhibitory concentration (MIC), broth dilution method
Type in all cases: cell-based
Enterococcus sp. = settings: 18 hours at 35° C.
Procedure, shortened: (§1)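 NCCLS M7-A2 broth dilution with Mueller-Hinton II, testing 64-0.06 μg/mL antibiotic against 5×10^5 CFU/mL inocula. Test strains include recent methicillin-, penicillin- or vancomycin-resistant clinical isolates. MIC is the lowest concentration preventing growth.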

Staphylococcus sp. = settings: for MIC Staphylococcus aureus (GC 3051): strain GC 3051; for MIC Staphylococcus aureus (GC 3053): strain GC 3053; for MIC Staphylococcus aureus (GC 4542): strain GC 4542; for MIC Staphylococcus aureus (GC 4544): strain GC 4544; for MIC Staphylococcus aureus (GC 4545): strain GC 4545; for MIC Staphylococcus haemolyticus (GC 4546): strain GC 4546; for MIC Coagulase Negative Staphylococcus (GC 4547): strain GC 4547; for MIC Coagulase Negative Staphylococcus (GC 4551): strain GC 4551; for MIC Coagulase Negative Staphylococcus (GC 6257): strain GC 6257
Procedure, shortened: as §1

Escherichia coli = settings: 18 hours at 35° C.
Procedure, shortened: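 An MIC is reported for each organism as the least concentration giving inhibition, using broth dilution over 64-0.06 μg/mL with a 5×10^5 CFU/mL inoculum.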

Streptococcus sp. = settings: 18 hours at 35° C.
Procedure, shortened: as §1

[1] = broth dilution, inoculum 5×10^5 CFU/mL
[2] = broth dilution, 18 hours at 35° C.

CC(c1ccc(Cl)cc1)C1NC(=O)CNC(=O)C(CO)NC(=O)C(C(O)C2CNC(=N)N2C2OC(CO)C(O)C(O)C2O)NC(=O)C(C(O)C2CNC(=N)N2)NC(=O)C(Cc2ccc(OC3OC(CO)C(OC4OC5COC(C6CCCCC6)OC5C(O)C4O)C(O)C3O)cc2)NC1=O (stereo not shown) [Example 193]
<0.06 µg/mL: MIC Streptococcus agalactiae (GC 4564) (Streptococcus sp.; Streptococcus agalactiae (GC 4564)) | MIC Streptococcus pneumoniae (GC 1894) (Streptococcus sp.; Streptococcus pneumoniae (GC 1894)) | MIC Streptococcus pneumoniae (GC 4565) (Streptococcus sp.; Streptococcus pneumoniae (GC 4565)) | MIC Streptococcus pyogenes (GC 4563) (Streptococcus sp.; Streptococcus pyogenes (GC 4563)) | MIC Streptococcus agalactiae (GC 4564) (Streptococcus sp.; [1]) | MIC Streptococcus pneumoniae (GC 1894) (Streptococcus sp.; [1]) | MIC Streptococcus pneumoniae (GC 4565) (Streptococcus sp.; [1]) | MIC Streptococcus pyogenes (GC 4563) (Streptococcus sp.; [1])
1 µg/mL: MIC Enterococcus faecalis (ATCC 29212) (Enterococcus sp.; Enterococcus faecalis (ATCC 29212)) | MIC Enterococcus faecalis (GC 2242) (Enterococcus sp.; Enterococcus faecalis (GC 2242)) | MIC Enterococcus faecalis (GC 3059) (Enterococcus sp.; Enterococcus faecalis (GC 3059)) | MIC Enterococcus faecalis (GC 4552) (Enterococcus sp.; Enterococcus faecalis (GC 4552)) | MIC Enterococcus faecium (GC 2243) (Enterococcus sp.; Enterococcus faecium (GC 2243)) | MIC Enterococcus faecium (GC 4556) (Enterococcus sp.; Enterococcus faecium (GC 4556)) | MIC Enterococcus faecalis (ATCC 29212) (Enterococcus sp.; [1]) | MIC Enterococcus faecalis (GC 2242) (Enterococcus sp.; [1]) | MIC Enterococcus faecalis (GC 3059) (Enterococcus sp.; [1]) | MIC Enterococcus faecalis (GC 4552) (Enterococcus sp.; [1]) | MIC Enterococcus faecium (GC 2243) (Enterococcus sp.; [1]) | MIC Enterococcus faecium (GC 4556) (Enterococcus sp.; [1]) | MIC Staphylococcus aureus (GC 1131) (Staphylococcus sp.; strain GC 1131) | MIC Staphylococcus aureus (GC 3051) (Staphylococcus sp.) | MIC Staphylococcus aureus (GC 4544) (Staphylococcus sp.) | MIC Coagulase Negative Staphylococcus (GC 4547) (Staphylococcus sp.)
0.12 µg/mL: MIC Streptococcus pneumoniae (ATCC 6301) (Streptococcus sp.; Streptococcus pneumoniae (ATCC 6301)) | MIC Streptococcus pneumoniae (ATCC 6301) (Streptococcus sp.; [1])
2 µg/mL: MIC Enterococcus avium (GC 4558) (Enterococcus sp.; Enterococcus avium (GC 4558)) | MIC Enterococcus faecalis (GC 2691) (Enterococcus sp.; Enterococcus faecalis (GC 2691)) | MIC Enterococcus faecalis (GC 4553) (Enterococcus sp.; Enterococcus faecalis (GC 4553)) | MIC Enterococcus faecalis (GC 4554) (Enterococcus sp.; Enterococcus faecalis (GC 4554)) | MIC Enterococcus faecium (GC 4557) (Enterococcus sp.; Enterococcus faecium (GC 4557)) | MIC Enterococcus avium (GC 4558) (Enterococcus sp.; [1]) | MIC Enterococcus faecalis (GC 2691) (Enterococcus sp.; [1]) | MIC Enterococcus faecalis (GC 4553) (Enterococcus sp.; [1]) | MIC Enterococcus faecalis (GC 4554) (Enterococcus sp.; [1]) | MIC Enterococcus faecium (GC 4557) (Enterococcus sp.; [1]) | MIC Escherichia coli (GC 4560) (Escherichia coli; Escherichia coli (GC 4560))
32 µg/mL: MIC Escherichia coli (GC 4559) (Escherichia coli; Escherichia coli (GC 4559))
0.5 µg/mL: MIC Enterococcus faecalis (GC 6189) (Enterococcus sp.; Enterococcus faecalis (GC 6189)) | MIC Enterococcus faecalis (GC 6189) (Enterococcus sp.; [1]) | MIC Staphylococcus aureus (ATCC 29213) (Staphylococcus sp.; strain ATCC 29213) | MIC Staphylococcus aureus (GC 3053) (Staphylococcus sp.) | MIC Staphylococcus aureus (GC 4541) (Staphylococcus sp.; strain GC 4541) | MIC Staphylococcus aureus-SMITH (GC 4543) (Staphylococcus sp.; strain GC 4543) | MIC Staphylococcus aureus (GC 4545) (Staphylococcus sp.) | MIC Staphylococcus haemolyticus (GC 4546) (Staphylococcus sp.) | MIC Coagulase Negative Staphylococcus (GC 4551) (Staphylococcus sp.)
0.25 µg/mL: MIC Staphylococcus aureus (GC 4542) (Staphylococcus sp.) | MIC Coagulase Negative Staphylococcus (GC 4548) (Staphylococcus sp.; strain GC 4548) | MIC Coagulase Negative Staphylococcus (GC 4549) (Staphylococcus sp.; strain GC 4549) | MIC Coagulase Negative Staphylococcus (GC 6257) (Staphylococcus sp.)

CC(c1ccccc1)C1NC(=O)CNC(=O)C(CO)NC(=O)C(C(O)C2CNC(=N)N2C2OC(CO)C(O)C(O)C2O)NC(=O)C(C(O)C2CNC(=N)N2)NC(=O)C(Cc2ccc(OC3OC(CO)C(OC4OC(CO)C(O)C5OC(c6ccccc6)OC45)C(O)C3O)cc2)NC1=O (single isomer, unassigned) [Example 104a, Cyclo[glycyl-β-methylphenylalanyl-O-[4-O-(2,3-O-benzylidenehexopyranosyl)hexopyranosyl]-tyrosyl-3-(2-iminoimidazolidin-4-yl)seryl-3-(3-hexopyranosyl-2-iminoimidazolidin-4-yl)-serylseryl]]
0.5 µg/mL: MIC Enterococccus faecium (GC 4557) (Enterococcus sp.; broth dilution, 5×10^5 CFU/mL) | MIC Staphylococcus aureus (GC 3051) (Staphylococcus sp.) | MIC Staphylococcus aureus (GC 3053) (Staphylococcus sp.) | MIC Staphylococcus aureus (GC 4542) (Staphylococcus sp.) | MIC Staphylococcus aureus (GC 4544) (Staphylococcus sp.) | MIC Staphylococcus aureus (GC 4545) (Staphylococcus sp.) | MIC Streptococcus agalactiae (GC 4564) (Streptococcus sp.; broth dilution, 5×10^5 CFU/mL)
>0.5 µg/mL: MIC Enterococccus faecalis (GC 2691) (Enterococcus sp.; broth dilution, 5×10^5 CFU/mL) | MIC Enterococccus faecalis (GC 3059) (Enterococcus sp.; broth dilution, 5×10^5 CFU/mL) | MIC Enterococccus faecalis (GC 4552) (Enterococcus sp.; broth dilution, 5×10^5 CFU/mL) | MIC Enterococccus faecalis (GC 4553) (Enterococcus sp.; broth dilution, 5×10^5 CFU/mL) | MIC Enterococccus faecalis (GC 4554) (Enterococcus sp.; broth dilution, 5×10^5 CFU/mL)
0.12 µg/mL: MIC Streptococcus pneumoniae (GC 4565) (Streptococcus sp.; broth dilution, 5×10^5 CFU/mL) | MIC Streptococcus pyogenes (GC 4563) (Streptococcus sp.; broth dilution, 5×10^5 CFU/mL)
16 µg/mL: MIC Coagulase Negative Staphylococcus (GC 6257) (Staphylococcus sp.) | MIC Coagulase Negative Staphylococcus (GC 6257) (Staphylococcus sp.; [2])
0.12 to 16 µg/mL: MIC Streptococcus pneumonine (ATCC 6301) (Streptococcus sp.; broth dilution, 5×10^5 CFU/mL)
32 µg/mL: MIC Staphylococcus haemolyticus (GC 4546) (Staphylococcus sp.) | MIC Staphylococcus haemolyticus (GC 4546) (Staphylococcus sp.; [2]) | MIC Coagulase Negative Staphylococcus (GC 4547) (Staphylococcus sp.) | MIC Coagulase Negative Staphylococcus (GC 4547) (Staphylococcus sp.; [2]) | MIC Coagulase Negative Staphylococcus (GC 4551) (Staphylococcus sp.) | MIC Coagulase Negative Staphylococcus (GC 4551) (Staphylococcus sp.; [2])
>64 µg/mL: MIC Enterococccus avium (GC 4558) (Enterococcus sp.; broth dilution, 5×10^5 CFU/mL) | MIC Enterococccus faecalis (ATCC 29212) (Enterococcus sp.; broth dilution, 5×10^5 CFU/mL) | MIC Enterococccus faecalis (GC 6189) (Enterococcus sp.; broth dilution, 5×10^5 CFU/mL) | MIC Enterococccus faecium (GC 2243) (Enterococcus sp.; broth dilution, 5×10^5 CFU/mL) | MIC Enterococccus faecium (GC 4556) (Enterococcus sp.; broth dilution, 5×10^5 CFU/mL) | MIC Enterococcus faecalis (GC 2242) (Enterococcus sp.; broth dilution, 5×10^5 CFU/mL) | MIC Escherichia coli (ATCC 25922) (Escherichia coli; 5×10^5 CFU/mL) | MIC Escherichia coli (GC 4559) (Escherichia coli; 5×10^5 CFU/mL)
